Values belong to the compound of their own block, whether it stands above or below them.
Columns and labels:
Assay in all cases: KINOMEscan competition binding
Details in all cases: compound 10.0 µM
[1] = test system: EGFR (human), P00533 [L861Q]
[2] = biological target: YES1 (human) (UniProt P07947)
[3] = biological target: TSSK1B (human) (UniProt Q9BXA7)
[4] = biological target: MAP2K1 (human) (UniProt Q02750)
[5] = biological target: LCK (human) (UniProt P06239)
[6] = biological target: STK3 (human) (UniProt Q13188)
[7] = biological target: ULK3 (human) (UniProt Q6PHR2)
[8] = biological target: AKT3 (human) (UniProt Q9Y243)
[9] = biological target: NEK1 (human) (UniProt Q96PY6)
[10] = biological target: MLTK (human) (UniProt Q9NYL2)
[11] = biological target: CAMK2B (human) (UniProt Q13554)
[12] = biological target: MUSK (human) (UniProt O15146)
[13] = biological target: LTK (human) (UniProt P29376)
[14] = biological target: STK32C (human) (UniProt Q86UX6)
[15] = biological target: FES (human) (UniProt P07332)
[16] = biological target: MARK2 (human) (UniProt Q7KZI7)
[17] = biological target: MARK1 (human) (UniProt Q9P0L2)
[18] = biological target: SRC (human) (UniProt P12931)
[19] = biological target: PIK3CA (human) (UniProt P42336)
[20] = biological target: DCLK1 (human) (UniProt O15075)
[21] = biological target: DCLK2 (human) (UniProt Q8N568)
[22] = biological target: STK36 (human) (UniProt Q9NRP7)
[23] = biological target: STK10 (human) (UniProt O94804)
[24] = test system: ABL1 (human), P00519 [H396P]
[25] = biological target: NUAK1 (human) (UniProt O60285)
[26] = biological target: EPHA8 (human) (UniProt P29322)
[27] = biological target: BLK (human) (UniProt P51451)
[28] = biological target: CDK8 (human) (UniProt P49336)
[29] = biological target: IGF1R (human) (UniProt P08069)
[30] = biological target: PRKAA2 (human) (UniProt P54646)
[31] = biological target: FGFR2 (human) (UniProt P21802)
[32] = biological target: ROCK2 (human) (UniProt O75116)
[33] = biological target: MYLK2 (human) (UniProt Q9H1R3)
[34] = biological target: CDK15 (human) (UniProt Q96Q40)
[35] = biological target: STK32B (human) (UniProt Q9NY57)
[36] = test system: ABL1 (human), P00519 [Q252H]
[37] = biological target: AXL (human) (UniProt P30530)
[38] = biological target: CDC2L2 (human) (UniProt Q9UQ88)
[39] = test system: RET (human), P07949 [V804M]
[40] = biological target: ADCK3 (human) (UniProt Q8NI60)
[41] = biological target: STK4 (human) (UniProt Q13043)
[42] = biological target: MST4 (human) (UniProt Q9P289)
[43] = biological target: EPHB4 (human) (UniProt P54760)

EPHA8 (human), sequence (P29322 whole entry, looked up): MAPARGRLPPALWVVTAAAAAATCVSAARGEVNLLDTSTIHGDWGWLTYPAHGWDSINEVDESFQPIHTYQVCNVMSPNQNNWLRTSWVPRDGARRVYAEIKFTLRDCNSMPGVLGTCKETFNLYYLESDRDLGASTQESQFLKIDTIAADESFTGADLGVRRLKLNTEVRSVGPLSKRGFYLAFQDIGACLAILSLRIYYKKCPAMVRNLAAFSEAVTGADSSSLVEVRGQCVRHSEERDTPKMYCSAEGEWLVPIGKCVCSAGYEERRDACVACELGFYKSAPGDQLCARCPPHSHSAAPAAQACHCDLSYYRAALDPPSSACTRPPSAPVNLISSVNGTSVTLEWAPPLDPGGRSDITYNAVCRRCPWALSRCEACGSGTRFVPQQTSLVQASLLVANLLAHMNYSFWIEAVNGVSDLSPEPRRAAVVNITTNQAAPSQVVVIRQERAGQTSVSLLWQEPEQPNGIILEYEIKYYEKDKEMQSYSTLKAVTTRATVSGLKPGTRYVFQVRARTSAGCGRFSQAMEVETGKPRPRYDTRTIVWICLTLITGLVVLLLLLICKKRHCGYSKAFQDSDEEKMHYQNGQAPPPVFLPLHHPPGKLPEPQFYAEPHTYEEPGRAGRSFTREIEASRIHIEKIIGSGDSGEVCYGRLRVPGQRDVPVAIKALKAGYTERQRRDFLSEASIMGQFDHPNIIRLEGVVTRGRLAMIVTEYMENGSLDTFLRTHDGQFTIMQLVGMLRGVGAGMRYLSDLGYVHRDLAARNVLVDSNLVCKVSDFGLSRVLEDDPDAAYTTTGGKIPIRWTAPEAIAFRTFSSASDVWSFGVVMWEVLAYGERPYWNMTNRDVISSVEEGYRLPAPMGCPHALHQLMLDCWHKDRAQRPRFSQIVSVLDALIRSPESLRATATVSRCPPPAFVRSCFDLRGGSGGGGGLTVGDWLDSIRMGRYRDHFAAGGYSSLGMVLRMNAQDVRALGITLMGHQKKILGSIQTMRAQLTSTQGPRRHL
LCK (human), sequence (P06239 whole entry, looked up): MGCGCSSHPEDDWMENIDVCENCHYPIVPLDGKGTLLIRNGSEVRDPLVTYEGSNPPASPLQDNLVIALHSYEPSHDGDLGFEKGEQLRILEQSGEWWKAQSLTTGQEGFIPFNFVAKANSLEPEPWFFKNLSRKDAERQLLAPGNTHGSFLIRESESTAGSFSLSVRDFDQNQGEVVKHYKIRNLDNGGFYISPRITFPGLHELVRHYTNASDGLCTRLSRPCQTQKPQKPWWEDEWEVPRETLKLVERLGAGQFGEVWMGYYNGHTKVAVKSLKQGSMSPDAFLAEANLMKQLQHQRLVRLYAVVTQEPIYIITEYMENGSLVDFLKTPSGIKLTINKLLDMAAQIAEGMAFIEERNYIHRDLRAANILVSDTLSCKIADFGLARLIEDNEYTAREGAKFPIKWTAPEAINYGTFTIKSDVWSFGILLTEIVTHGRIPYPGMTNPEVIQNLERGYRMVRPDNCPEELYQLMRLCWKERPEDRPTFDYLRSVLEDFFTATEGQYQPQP
MARK1 (human), sequence (Q9P0L2 whole entry, looked up): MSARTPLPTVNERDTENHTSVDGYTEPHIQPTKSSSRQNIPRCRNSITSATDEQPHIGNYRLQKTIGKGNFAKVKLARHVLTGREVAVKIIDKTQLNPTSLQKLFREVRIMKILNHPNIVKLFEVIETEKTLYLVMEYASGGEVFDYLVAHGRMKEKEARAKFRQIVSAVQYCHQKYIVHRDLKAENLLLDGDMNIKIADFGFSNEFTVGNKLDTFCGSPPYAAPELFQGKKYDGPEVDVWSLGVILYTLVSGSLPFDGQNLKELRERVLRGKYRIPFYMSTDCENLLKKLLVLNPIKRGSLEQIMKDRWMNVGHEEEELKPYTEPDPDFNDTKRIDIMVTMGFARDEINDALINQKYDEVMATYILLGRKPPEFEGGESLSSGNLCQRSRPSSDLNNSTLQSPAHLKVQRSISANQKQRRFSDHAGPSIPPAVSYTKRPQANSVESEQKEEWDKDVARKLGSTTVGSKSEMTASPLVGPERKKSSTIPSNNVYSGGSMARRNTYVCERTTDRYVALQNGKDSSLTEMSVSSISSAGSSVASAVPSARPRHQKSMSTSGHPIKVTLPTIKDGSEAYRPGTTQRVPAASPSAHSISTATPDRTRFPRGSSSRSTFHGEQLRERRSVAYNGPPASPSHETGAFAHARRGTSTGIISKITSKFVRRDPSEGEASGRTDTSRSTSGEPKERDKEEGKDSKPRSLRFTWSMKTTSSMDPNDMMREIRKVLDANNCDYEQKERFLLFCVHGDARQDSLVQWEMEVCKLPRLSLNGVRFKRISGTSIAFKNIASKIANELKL
PRKAA2 (human), sequence (P54646 whole entry, looked up): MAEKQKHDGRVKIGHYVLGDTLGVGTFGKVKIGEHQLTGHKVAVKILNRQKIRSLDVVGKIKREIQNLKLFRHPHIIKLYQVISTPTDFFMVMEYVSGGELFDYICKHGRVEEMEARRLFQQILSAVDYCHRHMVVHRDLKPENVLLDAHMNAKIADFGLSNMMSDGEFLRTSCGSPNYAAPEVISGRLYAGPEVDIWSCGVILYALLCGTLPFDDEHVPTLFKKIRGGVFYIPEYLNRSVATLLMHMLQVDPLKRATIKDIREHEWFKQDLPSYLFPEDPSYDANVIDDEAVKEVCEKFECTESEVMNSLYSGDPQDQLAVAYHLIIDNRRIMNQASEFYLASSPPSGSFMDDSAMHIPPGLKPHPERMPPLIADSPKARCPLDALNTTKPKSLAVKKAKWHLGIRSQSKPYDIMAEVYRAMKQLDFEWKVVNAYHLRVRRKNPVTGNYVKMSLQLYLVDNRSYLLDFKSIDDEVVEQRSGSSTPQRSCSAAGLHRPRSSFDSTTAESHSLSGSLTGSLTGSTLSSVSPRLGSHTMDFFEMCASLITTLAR
FGFR2 (human), sequence (P21802 whole entry, looked up): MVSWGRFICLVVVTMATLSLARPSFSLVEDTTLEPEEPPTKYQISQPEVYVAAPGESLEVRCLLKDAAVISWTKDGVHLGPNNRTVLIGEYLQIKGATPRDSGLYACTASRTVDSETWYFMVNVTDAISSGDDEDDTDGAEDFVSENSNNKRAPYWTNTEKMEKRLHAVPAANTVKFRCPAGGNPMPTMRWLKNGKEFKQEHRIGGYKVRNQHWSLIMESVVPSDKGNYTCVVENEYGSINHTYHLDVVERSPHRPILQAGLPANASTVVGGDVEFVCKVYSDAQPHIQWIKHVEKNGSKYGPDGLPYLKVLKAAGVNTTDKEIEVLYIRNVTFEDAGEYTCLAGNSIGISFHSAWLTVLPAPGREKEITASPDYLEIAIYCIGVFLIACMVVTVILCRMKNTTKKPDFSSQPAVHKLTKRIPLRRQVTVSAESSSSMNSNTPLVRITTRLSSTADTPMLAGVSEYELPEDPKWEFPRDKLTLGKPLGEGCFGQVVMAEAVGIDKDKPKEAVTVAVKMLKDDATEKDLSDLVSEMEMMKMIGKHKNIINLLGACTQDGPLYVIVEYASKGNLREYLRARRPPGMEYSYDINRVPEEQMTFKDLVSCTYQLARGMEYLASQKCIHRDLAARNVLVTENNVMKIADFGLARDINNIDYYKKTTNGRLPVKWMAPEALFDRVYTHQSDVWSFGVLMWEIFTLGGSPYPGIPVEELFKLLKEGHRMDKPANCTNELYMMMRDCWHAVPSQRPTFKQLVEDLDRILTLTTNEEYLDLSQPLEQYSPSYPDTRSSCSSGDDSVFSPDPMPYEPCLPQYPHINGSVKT
TSSK1B (human), sequence (Q9BXA7 whole entry, looked up): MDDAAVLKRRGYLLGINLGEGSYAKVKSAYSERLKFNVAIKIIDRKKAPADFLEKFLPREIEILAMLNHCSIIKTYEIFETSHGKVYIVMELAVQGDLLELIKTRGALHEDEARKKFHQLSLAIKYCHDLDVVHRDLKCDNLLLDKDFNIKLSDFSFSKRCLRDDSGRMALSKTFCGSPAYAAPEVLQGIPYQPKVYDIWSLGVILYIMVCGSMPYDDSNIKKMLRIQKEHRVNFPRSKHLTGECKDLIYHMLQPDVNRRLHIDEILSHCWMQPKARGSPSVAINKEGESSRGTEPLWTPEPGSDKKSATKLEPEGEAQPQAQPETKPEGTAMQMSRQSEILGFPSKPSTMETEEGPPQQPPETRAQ
CAMK2B (human), sequence (Q13554 whole entry, looked up): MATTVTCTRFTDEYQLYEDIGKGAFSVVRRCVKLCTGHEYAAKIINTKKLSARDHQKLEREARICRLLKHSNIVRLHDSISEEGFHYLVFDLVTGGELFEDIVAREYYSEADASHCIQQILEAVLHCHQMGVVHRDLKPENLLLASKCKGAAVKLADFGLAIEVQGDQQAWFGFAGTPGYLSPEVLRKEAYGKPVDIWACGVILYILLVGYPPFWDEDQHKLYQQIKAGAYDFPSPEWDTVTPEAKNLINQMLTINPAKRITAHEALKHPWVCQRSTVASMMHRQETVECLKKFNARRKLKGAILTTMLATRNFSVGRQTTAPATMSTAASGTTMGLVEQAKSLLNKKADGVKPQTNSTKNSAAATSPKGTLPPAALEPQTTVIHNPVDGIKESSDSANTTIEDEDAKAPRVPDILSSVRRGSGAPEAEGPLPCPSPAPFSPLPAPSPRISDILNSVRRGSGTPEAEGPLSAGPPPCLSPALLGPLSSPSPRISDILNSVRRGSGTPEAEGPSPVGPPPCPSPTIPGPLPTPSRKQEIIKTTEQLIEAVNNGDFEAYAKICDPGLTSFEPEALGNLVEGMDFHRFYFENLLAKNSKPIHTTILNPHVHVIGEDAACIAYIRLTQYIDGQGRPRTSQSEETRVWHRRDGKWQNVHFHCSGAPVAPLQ

kinase still bound, per cent of control [1]: 88% | kinase still bound, per cent of control [2]: 96% | kinase still bound, per cent of control [3]: 100% | kinase still bound, per cent of control [4]: 100% | kinase still bound, per cent of control [5]: 100% | kinase still bound, per cent of control [6]: 82% | kinase still bound, per cent of control [7]: 100% | kinase still bound, per cent of control [8]: 90% | kinase still bound, per cent of control [9]: 100% | kinase still bound, per cent of control [10]: 100% | kinase still bound, per cent of control [11]: 98% | kinase still bound, per cent of control [12]: 100% | kinase still bound, per cent of control [13]: 86% | kinase still bound, per cent of control [14]: 100% | kinase still bound, per cent of control [15]: 100% | kinase still bound, per cent of control [16]: 100% | kinase still bound, per cent of control [17]: 96% | kinase still bound, per cent of control [18]: 100% | kinase still bound, per cent of control [19]: 100% | kinase still bound, per cent of control [20]: 24% | kinase still bound, per cent of control [21]: 22% | kinase still bound, per cent of control [22]: 100% | kinase still bound, per cent of control [23]: 100% | kinase still bound, per cent of control [24]: 88% | kinase still bound, per cent of control [25]: 90% | kinase still bound, per cent of control [26]: 92% | kinase still bound, per cent of control [27]: 100% | kinase still bound, per cent of control [28]: 100% | kinase still bound, per cent of control [29]: 100% | kinase still bound, per cent of control [30]: 100% | kinase still bound, per cent of control [31]: 100% | kinase still bound, per cent of control [32]: 100% | kinase still bound, per cent of control [33]: 100% | kinase still bound, per cent of control [34]: 88% | kinase still bound, per cent of control [35]: 100% | kinase still bound, per cent of control [36]: 100% | kinase still bound, per cent of control [37]: 100% | kinase still bound, per cent of control [38]: 100% | kinase still bound, per cent of control [39]: 100% | kinase still bound, per cent of control [40]: 100% | kinase still bound, per cent of control [41]: 93% | kinase still bound, per cent of control [42]: 100% | kinase still bound, per cent of control [43]: 97%
SMILES: CN1CCN(c2ccc(C(=O)Nc3ncc4c(n3)N(C)c3ccccc3C(=O)N4C)cc2)CC1

kinase still bound, per cent of control [1]: 46% | kinase still bound, per cent of control [2]: 87% | kinase still bound, per cent of control [3]: 38% | kinase still bound, per cent of control [4]: 90% | kinase still bound, per cent of control [5]: 100% | kinase still bound, per cent of control [6]: 69% | kinase still bound, per cent of control [7]: 100% | kinase still bound, per cent of control [8]: 100% | kinase still bound, per cent of control [9]: 77% | kinase still bound, per cent of control [10]: 97% | kinase still bound, per cent of control [11]: 58% | kinase still bound, per cent of control [12]: 100% | kinase still bound, per cent of control [13]: 83% | kinase still bound, per cent of control [14]: 99% | kinase still bound, per cent of control [15]: 100% | kinase still bound, per cent of control [16]: 100% | kinase still bound, per cent of control [17]: 64% | kinase still bound, per cent of control [18]: 97% | kinase still bound, per cent of control [19]: 97% | kinase still bound, per cent of control [20]: 1.4% | kinase still bound, per cent of control [21]: 1% | kinase still bound, per cent of control [22]: 100% | kinase still bound, per cent of control [23]: 100% | kinase still bound, per cent of control [24]: 82% | kinase still bound, per cent of control [25]: 25% | kinase still bound, per cent of control [26]: 89% | kinase still bound, per cent of control [27]: 100% | kinase still bound, per cent of control [28]: 100% | kinase still bound, per cent of control [29]: 100% | kinase still bound, per cent of control [30]: 94% | kinase still bound, per cent of control [31]: 81% | kinase still bound, per cent of control [32]: 57% | kinase still bound, per cent of control [33]: 90% | kinase still bound, per cent of control [34]: 92% | kinase still bound, per cent of control [35]: 100% | kinase still bound, per cent of control [36]: 90% | kinase still bound, per cent of control [37]: 75% | kinase still bound, per cent of control [38]: 100% | kinase still bound, per cent of control [39]: 88% | kinase still bound, per cent of control [40]: 100% | kinase still bound, per cent of control [41]: 100% | kinase still bound, per cent of control [42]: 70% | kinase still bound, per cent of control [43]: 100%
SMILES: COc1cc(N2CCN(C)CC2)ccc1Nc1ncc2c(n1)N(C)c1sccc1C(=O)N2C

kinase still bound, per cent of control [1]: 61% | kinase still bound, per cent of control [2]: 68% | kinase still bound, per cent of control [3]: 64% | kinase still bound, per cent of control [4]: 71% | kinase still bound, per cent of control [5]: 28% | kinase still bound, per cent of control [6]: 100% | kinase still bound, per cent of control [7]: 95% | kinase still bound, per cent of control [8]: 100% | kinase still bound, per cent of control [9]: 95% | kinase still bound, per cent of control [10]: 100% | kinase still bound, per cent of control [11]: 98% | kinase still bound, per cent of control [12]: 100% | kinase still bound, per cent of control [13]: 72% | kinase still bound, per cent of control [14]: 100% | kinase still bound, per cent of control [15]: 100% | kinase still bound, per cent of control [16]: 100% | kinase still bound, per cent of control [17]: 100% | kinase still bound, per cent of control [18]: 48% | kinase still bound, per cent of control [19]: 100% | kinase still bound, per cent of control [20]: 59% | kinase still bound, per cent of control [21]: 89% | kinase still bound, per cent of control [22]: 64% | kinase still bound, per cent of control [23]: 100% | kinase still bound, per cent of control [24]: 21% | kinase still bound, per cent of control [25]: 63% | kinase still bound, per cent of control [26]: 80% | kinase still bound, per cent of control [27]: 49% | kinase still bound, per cent of control [28]: 55% | kinase still bound, per cent of control [29]: 100% | kinase still bound, per cent of control [30]: 84% | kinase still bound, per cent of control [31]: 87% | kinase still bound, per cent of control [32]: 48% | kinase still bound, per cent of control [33]: 69% | kinase still bound, per cent of control [34]: 58% | kinase still bound, per cent of control [35]: 93% | kinase still bound, per cent of control [36]: 14% | kinase still bound, per cent of control [37]: 83% | kinase still bound, per cent of control [38]: 100% | kinase still bound, per cent of control [39]: 100% | kinase still bound, per cent of control [40]: 100% | kinase still bound, per cent of control [41]: 100% | kinase still bound, per cent of control [42]: 67% | kinase still bound, per cent of control [43]: 100%
SMILES: COc1cc(N2CCN(C)CC2)ccc1Nc1ncc2c(n1)Nc1ccccc1NC2=O

— the kinase profiling compilation of Christmann-Franck et al. (2016)
